Assay results published in US11638424B2, “Mosquito attractant formulations and uses thereof” (priority 2017, dated 2023).

Experiments:
Type in all cases: in vivo
A. gambiae s.l. = experiment: Olfactometer bioassay (larger Y-tube olfactometer / wind tunnel assay); details: RBCs+CO2 vs hRBCs, FIG. 2A
Experimental: Behavioural experiments were performed using different odour sources with and without pulsed CO2 stimuli in a Plexiglas Y shaped olfactometer (9.5 cm i.d.×length of the central cylinder and two arms: 120/120/120 cm respectively), illuminated from above at 280 lx. A charcoal-filtered and humidified air stream (25±2° C., RH 65±2%) passed through stainless steel mesh screens at 30 cm s^−1 to generate a laminar flow in the olfactometer. Odors were introduced into the air stream of each arm at the downwind end. […] Odor sources consisted of either RBC-based treatments or headspace extracts. RBC-based treatments included RBCs alone, hRBCs, giRBCs or ippRBCs (RBCs supplemented with HMBPP, gametocytes or IPP), as well as RBCs with supernatants from gametocyte-infected RBCs, or RBCs supplemented with the synthetic odour blend. Headspace extracts collected from hRBCs and giRBCs were used. Treatments including RBCs were heated to 37° C. prior to being pumped (150 ml min^−1) into the airstream of each arm separately. The blend and headspace extracts were delivered to each arm via a wick dispenser. Carbon dioxide (Strandmöllen) was introduced into a plume generator that was placed behind the metal screens to create a homogenous-pulsed flow, which was regulated by a stimulus controller (SEC-2/b, Syntech, Löptin Germany). […]

A. gambiae sensu lato [1] = experiment: Dual choice attraction bioassay (Y-tube olfactometer); details: added to RBCs
Experimental: Mosquitoes used in this study were from the laboratory colony of A. gambiae sensu lato (Keele line, University of Glasgow), which was produced by balanced interbreeding of four A. gambiae s.s. strains (H. Hurd, et al. Evolution, 59, 2560-2572 (2005)). Larvae were reared under standard insectary conditions (27±1° C., 70% humidity, 12 h light: 12 h dark cycle) and fed on TetraMin fish flakes (Tetra ltd., Germany). Pupae were transferred into holding cages for emergence. Emerged adults were fed ad libitum on 5% glucose solution, supplemented with 0.05% (w/v) 4-aminobenzoic acid (PABA, Sigma-Aldrich), through soaked filters on top of the 2 ml tubes and with soaked filter pads inside cages. Red blood cells (RBCs) were washed with Roswell Park Memorial Institute (RPMI) medium and stored in RPMI at 50% haematocrit at 4° C. until use. To measure the effect of HMBPP on mosquito fitness, RBCs stored in RPMI were centrifuged at 2500×g for 5 min followed by replacement of the medium with AB serum for a final haematocrit of 40%. HMBPP (stock concentration at 4 mM in Nanopure water, stored at −80° C.) was diluted to 10 μM in 1 ml RBC suspension, and the corresponding volume of Nanopure water was added to the control RBCs. All experiments were, unless otherwise stated, conducted on 5-7 days post-emergence female mosquitoes maintained in separated cages (approximately 210 individuals per cohort) and fed RBCs either with or without HMBPP for 30 min. All experiments were performed in triplicates.
Initial experiments were performed using a Y-tube olfactometer (length of the central cylinder and two arms: 25/15/15 cm respectively, inner diameter: 5 cm; see FIG. 1a). For each experiment, 180 female mosquitoes were individually placed in a release chamber and flown one by one. Females flew towards the upwind end (airflow 3 L min^−1) and entered one of two trapping chambers through which odour released from nearby membrane feeders passed (5 cm distance to each trapping chamber). Three experiments were conducted. In the first experiment, the membrane feeders were loaded with RBCs with or without HMBPP, while in the second they were loaded with serum with or without HMBPP. The third experiment was performed with a 5% glucose with 0.05% PABA solution with or without HMBPP. To control for possible spatial effects, the location of treatment at each olfactometer arm was switched every 30 minutes (˜15 mosquitoes flied one by one in each 30 minutes). Each replacement (feeder rotation with fresh RBCs) was counted as an experimental replicate (experimental block). Mosquitoes reaching any of the trapping chambers were considered to have made a choice. Each experiment was repeated six times with in total 180 mosquitoes per treatment.

A. gambiae sensu lato [2] = experiment: Fosmidomycin assay (feeding on media of FR-900098-treated, IPP-rescued parasite culture); details: supplemented with IPP, 90 s feeding, FIG. 1D
Experimental: The fosmidomycin assay was carried out as previously described (12). 48 hours (h) after the initiation of antibiotic treatment (FR-900098, the N-acetyl analogue to fosmidomycin), asexual parasite cultures were rescued by supplementation with 200 μM IPP for 48 h of continued passaging. Media from the rescued culture were collected and offered to mosquitoes, in comparison with media from control parasites (without antibiotic treatment). Fifty mosquitoes, isolated in two separate cages, were offered different treatments. Each group was allowed to feed on its own membrane feeder for 90 s.

`O=C=O` [carbon dioxide, reference compound] was tested, and the “attraction to RBCs supplemented with carbon dioxide versus hRBCs” value (A. gambiae s.l.) was “not sufficient to reproduce the full mosquito attraction to hRBCs”.

In the case of `C/C(=C\CO)CO` [(2E)-2-methylbut-2-ene-1,4-diol, reference compound], the “effect on the attraction of mosquitoes to RBCs” value (A. gambiae sensu lato [1]) is reported as “had no effect”.

In the case of `CC(=O)N(O)CCCP(=O)(O)O` [fosmidomycin derivative], the “mosquito feeding after block of HMBPP synthesis in tiRBCs” value (A. gambiae sensu lato [2]) is reported as “reduction of feeding to control levels”.
